Measured values from patent US8058431B2, “Fluorescent double stranded DNA binding dyes” (Roche Diagnostics Operations, Inc., priority 2006, dated 2011).

Legend:
genomic DNA = assay: Light stability: fluorescence of a mixture of dye and genomic DNA during continuous light exposure; type: physicochemical; settings: for fluorescence during continuous light exposure: dye + genomic DNA
Procedure: The light stability of R27, which is representative for the nine described dyes, was compared to established dyes already used for such applications. The fluorescence of a mixture of the respective dye and genomic DNA was measured during continuous light exposure.

[1] = Bleaching of dye solution during a typical PCR protocol on a real-time PCR instrument; type: physicochemical; settings: excitation for fluorescence measurement and repeated temperature changes between 55 and 95° C., LIGHTCYCLER 480

Structure (SMILES)	fluorescence during continuous light exposure (genomic DNA; light exposure 0 min) [%]	fluorescence during continuous light exposure (genomic DNA; light exposure 10 min) [%]	fluorescence during continuous light exposure (genomic DNA; light exposure 30 min) [%]	fluorescence during continuous light exposure (genomic DNA; light exposure 60 min) [%]	fluorescence during continuous light exposure (genomic DNA; light exposure 180 min) [%]	fluorescence during continuous light exposure (genomic DNA; light exposure 300 min) [%]	light stability compared to established dyes (genomic DNA; versus SYBR Green I and LC Green Plus)	bleaching of the dye [1]
COc1cc2c(cc1OC)N(C)C(CCCC[N+](C)(C)C)=N/C2=C\c1sc2ccccc2[n+]1C.[I-].[I-] [R 27]	100	99	98	99	97	96	distinctly higher	no recognizable bleaching
CCCN(CCCN(C)C)c1cc(C=C2Sc3ccccc3N2C)c2ccccc2[n+]1-c1ccccc1 [SYBR Green I, [2-[N-(-3-dimethylaminopropyl)-N-propylamino]-4-[2,3-dihydro-3-methyl-(benzo-1,3-thiazol-2-yl)-methylidene]-1-phenyl-quinolinium]+, reference compound]	100	87	77	70	40	24	–	–
